In the NIST ThermoML archive (doi:10.1021/acs.jced.7b00176):

Assay: xn = mol fraction of the nth substance listed
Settings: Liquid, Vibrating tube method

COCCOCCOC [2,5,8-trioxanonane] + CCCCO
Settings | mass density [kg/m3]
283.55 K, 100000 kPa, x2 = 0.5469 | 947.45
283.56 K, 40000 kPa, x2 = 0.5469 | 918.49
283.56 K, 60000 kPa, x2 = 0.5469 | 928.98
283.56 K, 80000 kPa, x2 = 0.5469 | 938.59
283.58 K, 5000 kPa, x2 = 0.5469 | 897.03
283.58 K, 10000 kPa, x2 = 0.5469 | 900.4
283.58 K, 20000 kPa, x2 = 0.5469 | 906.81
283.58 K, 30000 kPa, x2 = 0.5469 | 912.81
283.59 K, 100 kPa, x2 = 0.5469 | 893.58
283.59 K, 1000 kPa, x2 = 0.5469 | 894.22
283.62 K, 100 kPa, x2 = 0.7308 | 866.59
283.62 K, 1000 kPa, x2 = 0.7308 | 867.24
283.62 K, 5000 kPa, x2 = 0.7308 | 870.06
283.62 K, 10000 kPa, x2 = 0.7308 | 873.45
283.62 K, 20000 kPa, x2 = 0.7308 | 879.83
283.62 K, 30000 kPa, x2 = 0.7308 | 885.83
283.62 K, 40000 kPa, x2 = 0.7308 | 891.47
283.62 K, 60000 kPa, x2 = 0.7308 | 901.94
283.62 K, 80000 kPa, x2 = 0.7308 | 911.46
283.62 K, 100000 kPa, x2 = 0.7308 | 920.22
283.65 K, 100 kPa, x2 = 0.3116 | 922.56
283.65 K, 5000 kPa, x2 = 0.3116 | 926
283.65 K, 20000 kPa, x2 = 0.3116 | 935.72
283.65 K, 30000 kPa, x2 = 0.3116 | 941.81
283.65 K, 40000 kPa, x2 = 0.3116 | 947.48
283.65 K, 60000 kPa, x2 = 0.3116 | 958.06
283.65 K, 80000 kPa, x2 = 0.3116 | 967.62
283.65 K, 100000 kPa, x2 = 0.3116 | 976.51
283.66 K, 1000 kPa, x2 = 0.3116 | 923.21
283.66 K, 10000 kPa, x2 = 0.3116 | 929.34
283.66 K, 20000 kPa, x2 = 0.8787 | 855.19
283.66 K, 30000 kPa, x2 = 0.8787 | 861.18
283.66 K, 40000 kPa, x2 = 0.8787 | 866.81
283.66 K, 60000 kPa, x2 = 0.8787 | 877.23
283.66 K, 80000 kPa, x2 = 0.8787 | 886.62
283.66 K, 100000 kPa, x2 = 0.8787 | 895.34
283.67 K, 100 kPa, x2 = 0.8787 | 841.93
283.67 K, 1000 kPa, x2 = 0.8787 | 842.59
283.67 K, 5000 kPa, x2 = 0.8787 | 845.4
283.67 K, 10000 kPa, x2 = 0.8787 | 848.78
283.67 K, 40000 kPa, x2 = 0 | 978.49
283.67 K, 60000 kPa, x2 = 0 | 989.12
283.67 K, 80000 kPa, x2 = 0 | 998.75
283.67 K, 100000 kPa, x2 = 0 | 1007.71
283.68 K, 10000 kPa, x2 = 0 | 960.29
283.68 K, 20000 kPa, x2 = 0 | 966.68
283.68 K, 30000 kPa, x2 = 0 | 972.8
283.69 K, 100 kPa, x2 = 0 | 953.48
283.69 K, 1000 kPa, x2 = 0 | 954.15
283.69 K, 5000 kPa, x2 = 0 | 956.94
303.46 K, 80000 kPa, x2 = 0.8787 | 874
303.46 K, 100000 kPa, x2 = 0.8787 | 883.23
303.47 K, 100 kPa, x2 = 0 | 933.69
303.47 K, 1000 kPa, x2 = 0 | 934.43
303.47 K, 30000 kPa, x2 = 0.8787 | 846.7
303.47 K, 60000 kPa, x2 = 0.8787 | 863.93
303.48 K, 5000 kPa, x2 = 0 | 937.55
303.48 K, 10000 kPa, x2 = 0 | 941.31
303.48 K, 10000 kPa, x2 = 0.8787 | 833.12
303.48 K, 20000 kPa, x2 = 0.8787 | 840.14
303.48 K, 40000 kPa, x2 = 0.8787 | 852.78
303.49 K, 100 kPa, x2 = 0.8787 | 825.51
303.49 K, 5000 kPa, x2 = 0.8787 | 829.38
303.49 K, 20000 kPa, x2 = 0 | 948.42
303.49 K, 30000 kPa, x2 = 0 | 955.17
303.49 K, 40000 kPa, x2 = 0 | 961.41
303.49 K, 60000 kPa, x2 = 0 | 973.02
303.5 K, 1000 kPa, x2 = 0.7308 | 850.15
303.5 K, 1000 kPa, x2 = 0.8787 | 826.23
303.5 K, 5000 kPa, x2 = 0.7308 | 853.29
303.5 K, 10000 kPa, x2 = 0.7308 | 857.01
303.5 K, 20000 kPa, x2 = 0.7308 | 864.06
303.5 K, 30000 kPa, x2 = 0.7308 | 870.65
303.5 K, 40000 kPa, x2 = 0.5469 | 902.93
303.5 K, 40000 kPa, x2 = 0.7308 | 876.8
303.5 K, 60000 kPa, x2 = 0.5469 | 914.29
303.5 K, 60000 kPa, x2 = 0.7308 | 888.07
303.5 K, 79990 kPa, x2 = 0.7308 | 898.18
303.5 K, 80000 kPa, x2 = 0 | 983.33
303.5 K, 80000 kPa, x2 = 0.5469 | 924.52
303.5 K, 100000 kPa, x2 = 0 | 992.97
303.5 K, 100000 kPa, x2 = 0.5469 | 933.93
303.5 K, 100000 kPa, x2 = 0.7308 | 907.47
303.51 K, 100 kPa, x2 = 0.5469 | 875.36
303.51 K, 100 kPa, x2 = 0.7308 | 849.42
303.51 K, 1000 kPa, x2 = 0.5469 | 876.1
303.51 K, 10000 kPa, x2 = 0.5469 | 883.02
303.51 K, 20000 kPa, x2 = 0.5469 | 890.1
303.51 K, 30000 kPa, x2 = 0.5469 | 896.73
303.52 K, 5000 kPa, x2 = 0.5469 | 879.25
303.55 K, 100000 kPa, x2 = 0.3116 | 962.26
303.56 K, 10000 kPa, x2 = 0.3116 | 911.05
303.56 K, 20000 kPa, x2 = 0.3116 | 918.17
303.56 K, 30000 kPa, x2 = 0.3116 | 924.8
303.56 K, 40000 kPa, x2 = 0.3116 | 931.1
303.56 K, 60000 kPa, x2 = 0.3116 | 942.54
303.56 K, 80000 kPa, x2 = 0.3116 | 952.82
303.57 K, 100 kPa, x2 = 0.3116 | 903.4
303.57 K, 1000 kPa, x2 = 0.3116 | 904.14
303.57 K, 5000 kPa, x2 = 0.3116 | 907.29
322.62 K, 100 kPa, x2 = 0 | 914.41
322.62 K, 1000 kPa, x2 = 0 | 915.3
322.62 K, 5000 kPa, x2 = 0 | 918.77
322.62 K, 10000 kPa, x2 = 0 | 923.02
322.62 K, 20000 kPa, x2 = 0 | 930.99
322.62 K, 30000 kPa, x2 = 0 | 938.31
322.62 K, 40000 kPa, x2 = 0 | 945.16
322.62 K, 60000 kPa, x2 = 0 | 957.74
322.62 K, 80000 kPa, x2 = 0 | 968.98
322.62 K, 100000 kPa, x2 = 0 | 979.2
323.22 K, 100 kPa, x2 = 0.5469 | 857.29
323.22 K, 1000 kPa, x2 = 0.5469 | 858.13
323.22 K, 5000 kPa, x2 = 0.5469 | 861.6
323.23 K, 10000 kPa, x2 = 0.5469 | 865.79
323.23 K, 20000 kPa, x2 = 0.5469 | 873.63
323.23 K, 30000 kPa, x2 = 0.5469 | 880.92
323.23 K, 40000 kPa, x2 = 0.5469 | 887.67
323.23 K, 60000 kPa, x2 = 0.5469 | 899.96
323.24 K, 80000 kPa, x2 = 0.5469 | 911.05
323.24 K, 100000 kPa, x2 = 0.5469 | 920.96
323.26 K, 100 kPa, x2 = 0.7308 | 831.9
323.26 K, 1000 kPa, x2 = 0.7308 | 832.7
323.26 K, 5000 kPa, x2 = 0.7308 | 836.19
323.26 K, 10000 kPa, x2 = 0.7308 | 840.37
323.26 K, 20000 kPa, x2 = 0.7308 | 848.19
